Results published in article PMC6627438, “Terrosamycins A and B, Bioactive Polyether Ionophores from Streptomyces sp. RKND004 from Prince Edward Island Sediment” (Marine Drugs, 2019).
Where two headings read alike, the source gives them in different places.

Legend:
[1] = tested on: methicillin-resistant S. aureus ATCC 33591 (MRSA); assay: Antimicrobial assay (OD600 growth, CLSI microdilution), MRSA; format: cell-based, Staphyloccocus aureus; settings: Staphylococcus aureus, 22 h, read-out: IC50 MRSA
Description: (§1) The antimicrobial activities of 1 and 2 were evaluated against a panel of pathogens. For comparison, three known polyether ionophore standards were selected and tested in parallel. […] Furthermore, salinomycin and monensin are currently approved and marketed as antibiotics and anticoccidial agents for cattle and poultry. The compounds were each tested against the Gram-positive pathogens methicillin-resistant Staphyloccocus aureus (MRSA), vancomycin resistant Enterococcus faecium (VRE) and Staphylococcus warneri, Gram-negative pathogens Pseudomonas aeruginosa and Proteus vulgaris, and the yeast Candida albicans. No activity was observed against P. aeruginosa, P. vulgaris or C. albicans at the highest concentration tested (128 μg/mL).
(§2) The antimicrobial activities of 1–5 were evaluated using a panel of human pathogens including methicillin-resistant S. aureus ATCC 33591 (MRSA), vancomycin resistant E. faecium EF379 (VRE), S. warneri ATCC 17917, P. aeruginosa ATCC 14210, P. vulgaris ATCC 12454 and C. albicans ATCC 14035. Assays were performed according to Clinical Laboratory Standards Institute testing standards in a 96-well plate and in triplicate. Compounds 1–5 were dissolved in sterile 20% DMSO and serially diluted creating a range of twelve concentrations between 128 μg/mL and 0.0625 μg/mL. A Thermo Scientific Varioskan Flash plate reader was used to determine cell growth by measuring the optical density at 600 nm at time zero and after incubation at 37 °C for 22 h. The change in OD600 was calculated, percentages of microorganism survival were compared to the vehicle control wells and IC50 values were determined using GraphPad Prism 6.0 (GraphPad Software, San Diego, CA, USA). Control antibiotics used were vancomycin for MRSA and S. warneri, rifampicin for VRE, gentamycin for P. aeruginosa, ciprofloxacin for P. vulgaris and nystatin for C. albicans.

[2] = tested on: Cercopithecus aethiops kidney epithelial cells (Vero, ATCC CCL-81); assay: Cytotoxicity assay (alamarBlue), Vero; format: cell-based; settings: Chlorocebus sabaeus, 24 h, read-out: IC50 Vero
Description: (§3) In light of this information, 1, 2 and the known polyether standards were tested against a human breast adenocarcinoma cell line (HTB-26) and a human invasive breast ductal carcinoma cell line (MCF-7). The compounds were also tested in a healthy human foreskin fibroblast cell line (BJ) and healthy Cercopithecus aethiops kidney epithelial cells (Vero) as an evaluation of cytotoxicity toward healthy cells.
(§4) The cytotoxicities of compounds 1–5 were evaluated using two healthy cell lines—human foreskin fibroblast cells (BJ, ATCC CRL-2522) and Cercopithecus aethiops kidney epithelial cells (Vero, ATCC CCL-81)—as well as two cancer cell lines—human breast adenocarcinoma cells (ATCC HTB-26) and human invasive breast ductal carcinoma cells (ATCC MCF-7). Each cell line was grown and maintained in 15 mL of Eagle’s Minimal Essential Medium in T75 cm^2 cell culture flasks with the exception of HTB-26 cells which were grown in Dulbecco’s Modified Eagle’s Medium/Nutrient Mixture F-12 Ham. All growth media were supplemented with 10% fetal bovine serum, […] penicillin and 0.1 mg/mL streptomycin; the growth medium for MCF-7 cells was also supplemented with 0.01 mg/mL human recombinant insulin. All cell cultures were incubated at 37 °C in a humidified atmosphere with 5% CO2 and culture media was refreshed every two to three days. The cells were not allowed to exceed 80% confluency. At 80% confluency, the cells were counted and diluted in their respective growth medium without addition of antibiotics. Aliquots of 90 μL were added to a microwell plate at a density of 1 × 10^4 cells/well for Vero and HTB-26 cells and 5 × 10^3 cells/well for BJ fibroblast and MCF-7 cells. The plates were incubated at 37 °C with 5% CO2 for 24 h to allow cells to adhere to the plates prior to treatment. The vehicle DMSO was used to dissolve 1 and 2 and was present at a final concentration of 1% in each of the wells. A dilution series was prepared for each cell line using the respective growth medium and 10 μL aliquots of each was added to the respective plate in concentrations ranging from 128 μg/mL to 1 μg/mL in triplicate. Positive control wells contained only the growth medium and DMSO, negative control wells contained the growth medium, DMSO and cells and positive treated controls contained the growth medium, cells and a concentration range of either zinc pyrithione (BJ fibroblast), phenoxyethanol (Vero), or doxorubicin (HTB-26 and MCF-7). All plates were incubated at 37 °C with 5% CO2 for 24 h (BJ fibroblast, Vero) or 72 h (HTB-26, MCF-7). Following incubation, alamarBlue was added to each well at a concentration of 10% (v/v). Fluorescence was measured at 560 nm excitation and 590 nm emission using a Thermo Scientific Varioskan Flash plate reader at time zero and 4 h after treatment with alamarBlue. The change in 590 nm emission reading was used to calculate percent cell viability after each treatment relative to the negative controls. The IC50 values of compounds 1–5 for each cell line were calculated using GraphPad Prism 6.0.

[3] = tested on: human invasive breast ductal carcinoma cells (ATCC MCF-7); assay: Cytotoxicity assay (alamarBlue), MCF-7; format: cell-based; settings: read-out: IC50 MCF-7
Description: as §3, §4

[4] = tested on: human breast adenocarcinoma cells (ATCC HTB-26); assay: Cytotoxicity assay (alamarBlue), HTB-26; format: cell-based; settings: read-out: IC50 HTB-26
Description: as §3, §4

[5] = tested on: S. warneri ATCC 17917; assay: Antimicrobial assay (OD600 growth, CLSI microdilution), S. warneri; format: cell-based; settings: Staphylococcus warneri, read-out: IC50 S. warneri
Description: as §1, §2

[6] = tested on: human foreskin fibroblast cells (BJ, ATCC CRL-2522); assay: Cytotoxicity assay (alamarBlue), BJ; format: cell-based; settings: 24 h, read-out: IC50 BJ
Description: as §3, §4

[7] = tested on: vancomycin resistant E. faecium EF379 (VRE); assay: Antimicrobial assay (OD600 growth, CLSI microdilution), VRE; format: cell-based, Enterococcus faecium; settings: 22 h, read-out: IC50 VRE
Description: The antimicrobial activities of 1 and 2 were evaluated against a panel of pathogens. For comparison, three known polyether ionophore standards were selected and tested in parallel. […] The compounds were each tested against the Gram-positive pathogens methicillin-resistant Staphyloccocus aureus (MRSA), vancomycin resistant Enterococcus faecium (VRE) and Staphylococcus warneri, Gram-negative pathogens Pseudomonas aeruginosa and Proteus vulgaris, and the yeast Candida albicans.
as §2, with “Compounds 1–5 were dissolved in sterile 20% DMSO and serially diluted creating a range of twelve concentrations between 128 μg/mL and 0.0625 μg/mL.” left out

[8] = average ± SE (n = 6), 37 °C, OD600
[9] = average ± SE (n = 3), alamarBlue, healthy cell line
[10] = MCF7, average ± SE (n = 3), 72 h, alamarBlue, breast cancer cell line
[11] = HTB26, average ± SE (n = 3), 72 h, alamarBlue, breast cancer cell line
[12] = ATCC17917, average ± SE (n = 6), 37 °C, 22 h, OD600

SMILES	IC50 [1, 8]	IC50 [2, 9]	IC50 [3, 10]	IC50 [4, 11]	IC50 [5, 12]	IC50 [6, 9]	IC50 [7, 8]	IC50 [1]	IC50 [2]	IC50 ([3]; MCF7, 72 h)	IC50 ([4]; HTB26, 72 h)	IC50 ([5]; ATCC17917, 22 h)	IC50 [6]	IC50 [7]
CC[C@@]1([C@@H]2O[C@@H]([C@H]3O[C@@](O)(CO)[C@H](C)C[C@@H]3C)C[C@@H]2C)CC[C@H]([C@]2(C)CC[C@]3(C[C@H](O)[C@@H](C)[C@@H]([C@@H](C)[C@@H](OC)[C@H](C)C(=O)O)O3)O2)O1 [monensin (4), monensin]	1.5 ± 0.1 µM	10000 µM	7 ± 2 µM	10 ± 1 µM	2 ± 0.2 µM	245 ± 11 µM	8 ± 5 µM							
CO[C@@H]1C[C@@H](C[C@H]2CC[C@H](C)[C@H]([C@@H](C)C(=O)O)O2)O[C@]2(O[C@](C)([C@H]3CC[C@@](C)([C@@H]4O[C@@H]([C@H]5O[C@@](O)(CO)[C@H](C)C[C@@H]5C)C[C@@H]4C)O3)C[C@H]2C)[C@@H]1C [nigericin (5), nigericin]	0.2 ± 0.1 µM	61 ± 8 µM	9 ± 3 µM	13 ± 2 µM	0.3 ± 0.1 µM	221 ± 10 µM	0.5 ± 0.1 µM							
CO[C@@]1(C[C@@H](O)[C@@H](C)C(=O)[C@](C)(O)[C@@H]2CC[C@@](C)([C@H]3CC[C@@](C)(O)[C@H](C)O3)O2)O[C@H](C[C@@]2(OC)O[C@@H](C[C@H]3CC[C@H](C)[C@@H]([C@@H](C)C(=O)O)O3)[C@H](C)C[C@@H]2C)[C@@H](C)C[C@H]1C [terrosamycin B (2), terrosamycin B]								0.34 ± 0.04 µM	93 ± 4 µM	3.9 ± 0.4 µM	6 ± 1 µM	0.7 ± 0.1 µM	267 ± 28 µM	0.5 ± 0.1 µM
COc1cccc2c1C(=O)c1c(O)c3c(c(O)c1C2=O)C[C@@](O)(C(=O)CO)C[C@@H]3O[C@H]1C[C@H](N)[C@H](O)[C@H](C)O1 [doxorubicin control, doxorubicin]			0.8 ± 0.1 µM	4 ± 2 µM										
CO[C@H]1/C=C/O[C@@]2(C)Oc3c(C)c(O)c4c(O)c(c(/C=N/N5CCN(C)CC5)c(O)c4c3C2=O)NC(=O)/C(C)=C\C=C\[C@H](C)[C@H](O)[C@@H](C)[C@@H](O)[C@@H](C)[C@H](OC(C)=O)[C@@H]1C [rifampicin control, rifampicin]							1.1 ± 0.1 µM							
CC[C@@H](C(=O)[C@@H](C)[C@@H](O)[C@H](C)[C@@H]1O[C@@H]([C@@H](CC)C(=O)O)CC[C@@H]1C)[C@H]1O[C@]2(C=C[C@@H](O)[C@]3(CC[C@@](C)([C@H]4CC[C@](O)(CC)[C@H](C)O4)O3)O2)[C@H](C)C[C@@H]1C [salinomycin (3), salinomycin]		78 ± 22 µM	10 ± 3 µM	13 ± 1 µM	0.9 ± 0.2 µM	196 ± 3 µM		0.4 ± 0.1 µM						0.8 ± 0.2 µM
CN[C@H](CC(C)C)C(=O)N[C@H]1C(=O)N[C@@H](CC(N)=O)C(=O)N[C@H]2C(=O)N[C@H]3C(=O)N[C@H](C(=O)N[C@H](C(=O)O)c4cc(O)cc(O)c4-c4cc3ccc4O)[C@H](O)c3ccc(c(Cl)c3)Oc3cc2cc(c3O[C@@H]2O[C@H](CO)[C@@H](O)[C@H](O)[C@H]2O[C@H]2C[C@](C)(N)[C@H](O)[C@H](C)O2)Oc2ccc(cc2Cl)[C@H]1O [vancomycin control, vancomycin]								0.8 ± 0.1 µM				0.53 ± 0.01 µM		
C[C@@H]1C[C@H](C)[C@@](O)(C[C@H]2O[C@@](O)(C[C@@H](O)[C@@H](C)C(=O)[C@](C)(O)[C@@H]3CC[C@@](C)([C@H]4CC[C@@](C)(O)[C@H](C)O4)O3)[C@H](C)C[C@@H]2C)O[C@H]1C[C@H]1CC[C@H](C)[C@@H]([C@@H](C)C(=O)O)O1 [terrosamycin A (1), terrosamycin A]								0.5 ± 0.2 µM	36 ± 6 µM	6 ± 1 µM	10.1 ± 0.6 µM	0.9 ± 0.3 µM	79 ± 5 µM	0.58 ± 0.04 µM
